Here are results for 13 compounds from US20250163057A1, “DCN-1 MODULATING COMPOUNDS AND METHODS OF USE THEREOF” (Cellarity, Inc., priority 2023, published 2025).

The test has as its target DCN1 (DCUND1) protein PONY domain (Homo sapiens (Human), UniProt Q96GG9). In words: TR-FRET assay, DCN1 binding with FAM-labeled probe. The method, boiled down:
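Tb-DCN1 PONY domain (E. coli, biotin/streptavidin-Tb); FAM-labelled non-covalent inhibitor probe; TritonX buffer, 200 mM NaCl; 5 nM DCN1 + 20 nM probe or 0.31 nM DCN1 + 900 nM total probe; 0.1% DMSO; TR-FRET read 1, 5, 24 hrs.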
A general note: TR-FRET usually uses a lanthanide donor and a delayed reading to cut background.

[1] abbreviates: 24 hr after treatment with compound, read-out: TR FRET IC50 24 hr.
The mark [2] stands for this setting: TR FRET IC50 1 hr (nM), 1 hr after treatment with compound.

Read-outs that look alike come from different tables or passages of the source.

Sequence of DCN1 (DCUND1) protein PONY domain (Q96GG9 60-248): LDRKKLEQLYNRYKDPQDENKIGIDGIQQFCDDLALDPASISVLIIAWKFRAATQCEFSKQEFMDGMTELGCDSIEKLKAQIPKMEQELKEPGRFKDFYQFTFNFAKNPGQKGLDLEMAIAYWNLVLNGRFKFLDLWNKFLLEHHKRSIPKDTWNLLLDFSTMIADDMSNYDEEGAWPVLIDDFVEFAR

Broadly, the IC50 is the concentration that gives 50% inhibition. For `CCN1C(=O)[C@@H](NC(=O)c2cccc(C(F)(F)F)c2)[C@@H](c2ccc(F)cc2)c2c(C(=O)N3CCC[C@@H]3C#N)nn(-c3ccccc3)c21` (mixture of isomers) [Compound I-94], the IC50 under setting [1] was 200 to 1000 nM and the 50% inhibitory concentration (IC50) under setting [2] lay in the range of 200 to 1000 nM.

As for `CCN1C(=O)[C@@H](NC(=O)CC#N)[C@@H](C2CC2)c2c(C(=O)N3[C@H](C#N)C[C@H]4C[C@H]43)nn(C3CCOCC3)c21` [Compound I-555], the 50% inhibitory concentration (IC50) reads like this: under setting [1], 1000 to 3000 nM; under setting [2], 1000 to 3000 nM.

Consider `CCN1C(=O)[C@@H](NC(=O)C2CC(C)C2)[C@@H](C2CC2)c2c(C(=O)N3[C@H](C#N)C[C@H]4C[C@H]43)nn(C3CCOCC3)c21` (stereo partly shown) [Compound I-655], for which the IC50 is, setting by setting: under setting [1], 1000 to 3000 nM; under setting [2], 1000 to 3000 nM. For the compound `CCN1C(=O)[C@@H](NC(=O)c2cccc(C(F)(F)F)c2)[C@@H](c2ccc(F)cc2)c2c(CC/C=C\C(N)=O)nn(-c3ccccc3)c21` (racemic) [Compound I-142], the IC50 is, setting by setting: under setting [1], 200 to 1000 nM; under setting [2], 200 to 1000 nM. `CCN1C(=O)[C@@H](NC(=O)c2cccc(C(F)(F)F)c2)[C@@H](c2ccc(F)cc2)c2c(NC(=O)C(C)(C)C#N)nn(-c3ccccc3)c21` (racemic) [Compound I-63]: the IC50 under setting [1] lay in the range of 200 to 1000 nM. As to `CCN1C(=O)[C@@H](CC(=O)CC2CC2)[C@@H](C2CC2)c2c(C(=O)N3[C@H](C#N)C[C@H]4C[C@H]43)nn(C3CCOCC3)c21` [Compound I-466], the IC50 was 1000 to 3000 nM under setting [1] and 1000 to 3000 nM under setting [2]. `CCN1C(=O)[C@@H](NC(=O)c2ccc3c(c2)OCCO3)[C@@H](C2CC2)c2c(C(=O)N3[C@H](C#N)C[C@H]4C[C@H]43)nn(C3CCOCC3)c21` [Compound I-695]: the half-maximal inhibitory concentration (IC50) under setting [1] was in the range of 1000 to 3000 nM and the IC50 under setting [2] lay in the range of 1000 to 3000 nM.

In the case of `CCN1C(=O)[C@H](NC(=O)c2cccc(C(F)(F)F)c2)[C@H](c2ccc(F)cc2)c2c(CNC(=O)C3=CCN(C)C3)nn(-c3ccccc3)c21` (racemic) [Compound I-86, rac-N-(((4R,5R)-7-ethyl-4-(4-fluorophenyl)-6-oxo-1-phenyl-5-(3-(trifluoromethyl)benzamido)-4,5,6,7-tetrahydro-1H-pyrazolo[3,4-b]pyridin-3-yl)methyl)-1-methyl-2,5-dihydro-1H-pyrrole-3-carboxamide], the half-inhibitory concentration (IC50) runs as follows: under setting [1], 200 to 1000 nM; under setting [2], 200 to 1000 nM. With `CCN1C(=O)[C@@H](NC(=O)c2cccc(C(F)(F)F)c2)[C@H](c2ccc(F)cc2)c2c(CN(C)C#N)nn(-c3ccccc3)c21` (single isomer, unassigned) [Compound I-133], the 50% inhibitory concentration (IC50) under setting [1] lay within 200 to 1000 nM and the IC50 under setting [2] lay within 200 to 1000 nM.

Take `CCN1C(=O)[C@@H](NC(=O)c2cncc(C(F)(F)F)n2)[C@@H](C2CC2)c2c(C(=O)N3[C@H](C#N)C[C@H]4C[C@H]43)nn(C3CCOCC3)c21` [Compound I-590]: the half-maximal inhibitory concentration (IC50) is, setting by setting: under setting [1], 1000 to 3000 nM; under setting [2], 1000 to 3000 nM. With `C=C(COC)C(=O)NCc1nn(-c2ccccc2)c2c1[C@@H](c1ccc(F)cc1)[C@H](NC(=O)c1cccc(C(F)(F)F)c1)C(=O)N2CC` [Compound I-109], the IC50 by setting is: under setting [1], 200 to 1000 nM; under setting [2], 200 to 1000 nM. For the compound `CCOc1ccc(C)c(C(=O)N[C@@H]2C(=O)N(CC)c3c(c(C(=O)N4[C@H](C#N)C[C@H]5C[C@H]54)nn3C3CCOCC3)[C@@H]2C2CC2)c1` [Compound I-620], the IC50 under setting [1] was at most 200 nM and the IC50 (read-out: TR FRET IC50 1 hr, 1 hr after treatment with compound) is at most 200 nM.

As for `CCN1C(=O)[C@@H](NC(=O)c2cccc(C(F)(F)F)c2)[C@@H](c2ccc(F)cc2)c2c(CC/C=C/C(=O)O)nn(-c3ccccc3)c21` (racemic) [Compound I-134, rac-(E)-5-((4R,5R)-7-ethyl-4-(4-fluorophenyl)-6-oxo-1-phenyl-5-(3-(trifluoromethyl)benzamido)-4,5,6,7-tetrahydro-1H-pyrazolo[3,4-b]pyridin-3-yl)pent-2-enoic acid], the IC50 was in the range of 200 to 1000 nM under setting [1] and 200 to 1000 nM under setting [2].
